We go through 46 compounds from patent US12606528B2, “Methods and materials for inhibiting NF-kB activity” (University of Pittsburgh - Of the Commonwealth System of …, priority 2019, dated 2026).

By IC50 is commonly meant the concentration needed to halve the response being measured.

Like-named read-outs stand apart in the source and are kept apart here. A value given as a limit tells only on which side of the number the result lay.

Assay [1] concerns TNF release. In words: TNF assay: TNF release from LPS-stimulated human PBMCs (TNF ELISA). It is filed as cell-based. The note with it: PBMC, read-out: IC50 (TNF assay). The procedure: 25k THP1-NF-κB-LUC cells were dispensed into 384 well plate (per well). Cells were treated with compounds with various concentrations for 2 hours before addition of LPS (10 ng/mL) for 18 hours. Secreted luciferase activity were measured using quant-luc reagents (1 bag of luc reagent dilute to 40 mL, use 10 μL per well). Data were normalized to vehicle control and graphed. Compound IC50 towards inhibiting NF-κB were determined through Prism. Similarly, 10k human PBMCs cells were cultured in 384 well plate (per well). Cells were treated with compounds with various concentrations for 2 hours before addition of LPS (10 ng/ml) for 18 hours, and supernatants were collected and assayed for TNF ELISA. Compound IC50 towards inhibiting TNF release were determined through Prism. • Activity: “+”>10 μM, “++”>1 μM and <10 μM, “+++”>0.1 μM and <1 μM, “++++”<0.1 μM.
A general note: An ELISA detects its analyte on a solid surface through an enzyme-linked reagent.

The test system of assay [2] is NF-κB. The assay can be described thus: NF-κB assay: THP1-NF-κB-LUC cells, LPS-stimulated secreted luciferase. The settings on record: read-out: IC50 (NF-κB assay). Format: cell-based. The gist of the method: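 THP1-NF-κB-LUC cells (25k/well) were pretreated with compounds for 2 h, then stimulated with LPS (10 ng/mL) for 18 h. Secreted luciferase was measured and normalized to vehicle, and IC50 was fitted from the concentration series.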

Where [3] appears, read: LPS-stimulated human PBMCs, TNF ELISA.
Setting [4] is: THP1-NF-κB-LUC cells, LPS-stimulated.
[5] abbreviates: human PBMCs, compounds 2 hours before LPS (10 ng/ml) for 18 hours, supernatant TNF ELISA.
Setting [6] is: THP1-NF-κB-LUC cells, compounds 2 hours before LPS (10 ng/mL) for 18 hours, secreted luciferase.

For the compound `CN1CCN(C(=O)c2ccc3nc(C(F)(F)F)c(-c4cccc(F)c4)nc3c2)CC1` [BC19142], the IC50 in assay [1] (setting [3]) and in assay [2] (setting [4]) was more than 10 µM in each case.
As for `Fc1ccc(-c2nc3ccc(-c4nnc[nH]4)cc3nc2-c2ccc(F)cc2)cc1` [BC19143], the IC50 is more than 10 µM in assay [1] (setting [3]) and 0.1 to 1 µM in assay [2] (setting [4]).
For the compound `Fc1ccc(-c2nc3ccc(-c4nnn[nH]4)cc3nc2-c2ccc(F)cc2)cc1` [BC19144], the IC50 was more than 10 µM in assay [1] (setting [3]) and 1 to 10 µM in assay [2] (setting [4]).
With `Fc1ccc(-c2nc3ccc(-c4ncco4)cc3nc2-c2ccc(F)cc2)cc1` [BC19145], the IC50 in assay [1] (setting [3]) is more than 10 µM; in assay [2] (setting [4]) it was 1 to 10 µM.
The corresponding values for `Cc1ccc(-c2nc(S(=O)(=O)c3ccc(C)cc3)c(S(=O)(=O)C(C)C)o2)cc1` [BC19146] are 0.1 to 1 µM and less than 0.1 µM.
The corresponding values for `Cc1ccc(-c2nc(S(=O)(=O)c3ccc(F)cc3)c(S(C)(=O)=O)o2)cc1` [BC19147] are 0.1 to 1 µM and 0.1 to 1 µM.
The corresponding values for `Cn1cc(-c2ccc3nc(-c4ccc(F)cc4)c(-c4ccc(F)cc4)nc3c2)nn1` [BC19148] are more than 10 µM and less than 0.1 µM.
On to `CN1CCN(C(=O)c2ccc3nc(C(F)(F)F)c(-c4ccncc4)nc3c2)CC1` [BC19149], for which the IC50 in assay [1] (setting [3]) and in assay [2] (setting [4]) was more than 10 µM each time.
Consider `Fc1ccc(-c2nc3ccc(-c4c[nH]nn4)cc3nc2-c2ccc(F)cc2)cc1` [BC19150], for which the results for the IC50 in assay [1] (setting [3]) and in assay [2] (setting [4]) were 1 to 10 µM and 0.1 to 1 µM, respectively.
The corresponding values for `Cc1nnc(-c2ccc3nc(C(F)(F)F)c(-c4ccc(F)cc4)nc3c2)o1` [BC19151] are more than 10 µM and more than 10 µM.
The corresponding values for `Cn1nnnc1-c1ccc2nc(-c3ccc(F)cc3)c(C(F)(F)F)nc2c1` [BC19152] are more than 10 µM and more than 10 µM.
The corresponding values for `Fc1ccc(-c2nc3ccc(-c4nnn[nH]4)cc3nc2C(F)(F)F)cc1` [BC19153] are more than 10 µM and more than 10 µM.
Take `C#CCNC(=O)c1ccc2nc(-c3ccc(F)cc3)c(-c3ccc(F)cc3)nc2c1` [BC19154]: the IC50 in assay [1] (setting [3]) is more than 10 µM; in assay [2] (setting [4]), less than 0.1 µM.
The corresponding values for `NC(=O)c1ccc2nc(-c3cccs3)c(-c3ccc(F)cc3)nc2c1` [BC19155] are 1 to 10 µM and 0.1 to 1 µM.
With `O=C(O)c1ccc2nc(-c3ccc(F)cc3)c(-c3cccs3)nc2c1` [BC19156], the IC50 in assay [1] (Homo sapiens) was more than 10 µM; in assay [2] it was 1 to 10 µM.
Regarding `N#Cc1ccc2nc(-c3cccs3)c(-c3ccc(F)cc3)nc2c1` [BC19157], the IC50 in assay [1] (setting [3]) and in assay [2] (setting [4]) was more than 10 µM in each case.
For `N#Cc1ccc2nc(-c3ccc(F)cc3)c(C(F)(F)F)nc2c1` [BC19158], the IC50 in assay [1] (setting [3]) and in assay [2] (setting [4]) was more than 10 µM throughout.
Consider `Fc1ccc(-c2nc3ccc(-c4nnc[nH]4)cc3nc2C(F)(F)F)cc1` [BC19159], for which the IC50 in assay [1] (setting [3]) and in assay [2] (setting [4]) was more than 10 µM in each case.
Regarding `O=c1c(S(=O)(=O)c2ccc(F)cc2)c[nH]c2ccc(Cl)cc12` [BC19160], the IC50 in assay [1] (setting [5]) and in assay [2] (setting [6]) was more than 10 µM throughout.
Consider `O=C1COc2cc(S(=O)(=O)Nc3ccccc3)c(Cl)cc2N1` [BC19161], for which the half-maximal inhibitory concentration (IC50) is more than 10 µM in assay [1] (setting [5]) and 1 to 10 µM in assay [2] (setting [6]).
The corresponding values for `Cc1ccc(Cl)cc1NS(=O)(=O)c1cc2c(cc1Cl)NC(=O)CO2` [BC19162] are more than 10 µM and more than 10 µM.
With `COc1ccc(NS(=O)(=O)c2cc3c(cc2Br)NC(=O)CO3)cc1Cl` [BC19163], the IC50 in assay [1] (setting [5]) and in assay [2] (setting [6]) was more than 10 µM in each case.
As for `O=C1COc2cc(S(=O)(=O)Nc3ccc(OC(F)(F)F)cc3)c(Cl)cc2N1` [BC19164], the IC50 in assay [1] (setting [5]) is more than 10 µM; in assay [2] (setting [6]), less than 0.1 µM.
Consider `Cc1ccc(NS(=O)(=O)c2cc3c(cc2Cl)NC(=O)CO3)cc1Cl` [BC19165], for which the IC50 in assay [1] (setting [5]) was more than 10 µM; in assay [2] (setting [6]), 0.1 to 1 µM.
The corresponding values for `O=C1COc2cc(S(=O)(=O)Nc3ccc(F)cc3F)c(Br)cc2N1` [BC19166] are more than 10 µM and less than 0.1 µM.
For `CCc1cccc(NS(=O)(=O)c2cc3c(cc2Br)NC(=O)CO3)c1` [BC19167], the IC50 is more than 10 µM in assay [1] (setting [5]) and 0.1 to 1 µM in assay [2] (setting [6]).
Turning to `O=C1COc2c(cc(Cl)cc2S(=O)(=O)Nc2ccccc2)N1` [BC19168], the IC50 was more than 10 µM in assay [1] (setting [5]) and less than 0.1 µM in assay [2] (setting [6]).
The corresponding values for `O=C1COc2c(cc(Cl)cc2S(=O)(=O)Nc2ccc(Cl)cc2)N1` [BC19169] are more than 10 µM and less than 0.1 µM.
For the compound `Cc1ccc(Cl)cc1NS(=O)(=O)c1cc(Cl)cc2c1OCC(=O)N2` [BC19170], the 50% inhibitory concentration (IC50) in assay [1] (setting [5]) was more than 10 µM; in assay [2] (setting [6]), 1 to 10 µM.
On to `COc1ccc(NS(=O)(=O)c2cc(Br)cc3c2OCC(=O)N3)cc1Cl` [BC19171], for which the values for the IC50 in assay [1] (setting [5]) and in assay [2] (setting [6]) were more than 10 µM and less than 0.1 µM, respectively.
The corresponding values for `O=C1COc2c(cc(Cl)cc2S(=O)(=O)Nc2ccc(OC(F)(F)F)cc2)N1` [BC19172] are more than 10 µM and less than 0.1 µM.
The corresponding values for `CCOc1ccc(NS(=O)(=O)c2cc(Br)cc3c2OCC(=O)N3)cc1` [BC19173] are more than 10 µM and less than 0.1 µM.
The corresponding values for `CC(C)c1ccc(NS(=O)(=O)c2cc(Cl)cc3c2OCC(=O)N3)cc1` [BC19174] are more than 10 µM and less than 0.1 µM.
As for `COc1ccc(NS(=O)(=O)c2cc(Br)cc3c2OCC(=O)N3)cc1` [BC19175], the values for the IC50 in assay [1] (setting [5]) and in assay [2] (setting [6]) were more than 10 µM and less than 0.1 µM, respectively.
The corresponding values for `Cc1ccc(NS(=O)(=O)c2cc(Cl)cc3c2OCC(=O)N3)cc1Cl` [BC19176] are more than 10 µM and less than 0.1 µM.
The corresponding values for `O=C1COc2c(cc(Br)cc2S(=O)(=O)Nc2ccc(F)c(F)c2)N1` [BC19177] are more than 10 µM and less than 0.1 µM.
Consider `O=C1COc2c(cc(Br)cc2S(=O)(=O)Nc2ccc(F)cc2F)N1` [BC19178], for which the IC50 in assay [1] (setting [5]) was 1 to 10 µM; in assay [2] (setting [6]), less than 0.1 µM.
The corresponding values for `CCc1ccc(NS(=O)(=O)c2cc(Br)cc3c2OCC(=O)N3)cc1` [BC19179] are more than 10 µM and less than 0.1 µM.
The corresponding values for `CCc1cccc(NS(=O)(=O)c2cc(Br)cc3c2OCC(=O)N3)c1` [BC19180] are more than 10 µM and less than 0.1 µM.
Consider `CN1CC(=O)Nc2ccc(S(=O)(=O)N3CCCC3)cc21` [BC19181], for which the IC50 in assay [1] (setting [3]) and in assay [2] (setting [4]) was more than 10 µM each time.
Turning to `CC(=O)N1c2cc(S(=O)(=O)N3CCCC3)ccc2NC(=O)C1C` (centres unmarked) [BC19182], the IC50 in assay [1] (setting [3]) and in assay [2] (setting [4]) was more than 10 µM in each case.
Consider `CNC(=O)N1CC(=O)Nc2ccc(S(=O)(=O)N3CCCC3)cc21` [BC19183], for which the IC50 in assay [1] (setting [3]) and in assay [2] (setting [4]) was more than 10 µM each time.
Turning to `CC(C)CC(=O)N1c2cc(S(=O)(=O)N3CCCC3)ccc2NC(=O)C1C` (centres unmarked) [BC19184], the IC50 in assay [1] (setting [3]) and in assay [2] (setting [4]) was more than 10 µM throughout.
`CN1CCN(C(=O)c2ccc3nc(-c4ccc(F)cc4)c(-c4cccs4)nc3c2)CC1` [BC19185]: the IC50 in assay [1] (setting [3]) is more than 10 µM; in assay [2] (setting [4]), less than 0.1 µM.
The corresponding values for `Fc1ccc(-c2nc3cc(-c4nnn[nH]4)ccc3nc2-c2cccs2)cc1` [BC19186] are more than 10 µM and 1 to 10 µM.
The corresponding values for `NC(=O)c1ccc2nc(-c3ccc(F)cc3)c(-c3cccs3)nc2c1` [BC19187] are more than 10 µM and 0.1 to 1 µM.
